# Source: the supplement of paper PMC8253809
# Legend:
# [1] = system: SUDIPGXIX (diffuse intrinsic pontine glioma line); assay: maximal growth inhibition (yFin) relative to DMSO / staurosporine; higher = more efficacious
# Outline: (§1)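 Treatment used a pin tool and a 10-point threefold dilution series, mean top concentration 35 μM, run in triplicate on patient-derived pHGG/DIPG cell lines and astrocyte controls in 1% Geltrex-coated 384-well plates. Plates were kept at 37 °C, 5% CO2 for 7 days (iAstro: 3 days). Log2-transformed CellTiter-Glo luminescence was scaled per plate to % activity between negative (solvent) and positive control wells and pooled before fitting. EC50 and maximal response (yFin) came from the three- or four-parameter log-logistic fit chosen by lowest AICc.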
# [2] = system: iAstro (astrocyte control); assay: as above
# Outline: as §1
# [3] = system: SUDIPGXXI (diffuse intrinsic pontine glioma line); assay: as above
# Outline: as §1
# [4] = system: SUDIPGXIX; assay: EC50 (inflection of fitted growth-inhibition curve) (log10 M)
# Outline: as §1
# [5] = system: iAstro; assay: as above
# Outline: as §1
# [6] = system: SUDIPGXXI; assay: as above
# Outline: as §1
# [7] = system: HABS (astrocyte control); assay: area under dose-response curve of % growth inhibition (log2 RLU vs DMSO / staurosporine), 1e-11 to 1e-4 M (% x log10 M); higher = more growth inhibition
# Outline: (§2)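 Patient-derived pHGG/DIPG cell lines and astrocytes were plated in 384-well plates coated with 1% Geltrex and treated in triplicate with a 10-point threefold dilution series whose mean top concentration was 35 μM, for 7 days (3 days for iAstro) at 37 °C and 5% CO2. CellTiter-Glo luminescence was log2-transformed and scaled on each plate to % activity between solvent and positive controls. Area under the curve came from the trapezoid rule applied to a fitted log-logistic curve, or to a smoothing spline where the sigmoid fit failed.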
# [8] = system: DIPGX29 (H3.3 K27M diffuse intrinsic pontine glioma line); assay: as above
# Outline: as §2
# [9] = system: HGGX39 (paediatric high-grade glioma line); assay: as above
# Outline: as §2
# [10] = system: DIPGX37 (H3.3 K27M diffuse intrinsic pontine glioma line); assay: as above
# Outline: as §2
# [11] = system: SUDIPGIV (diffuse intrinsic pontine glioma line); assay: as above
# Outline: as §2
# [12] = system: SUDIPGXVII (diffuse intrinsic pontine glioma line); assay: as above
# Outline: as §2
# [13] = system: HGGX42 (H3.3 G34R paediatric high-grade glioma line); assay: as above
# Outline: as §2
# [14] = system: DIPGX9 (diffuse intrinsic pontine glioma line); assay: as above
# Outline: as §2
# [15] = system: SUDIPGXIX; assay: as above
# Outline: as §2
# [16] = system: HGGX2 (paediatric high-grade glioma line); assay: as above
# Outline: as §2
# [17] = system: SUDIPGVI (diffuse intrinsic pontine glioma line); assay: as above
# Outline: as §2
# [18] = system: DIPGX7 (H3.3 K27M diffuse intrinsic pontine glioma line); assay: as above
# Outline: as §2
# [19] = system: HGGX6 (H3.3 G34R paediatric high-grade glioma line); assay: as above
# Outline: as §2
# [20] = system: SUDIPGXIII (diffuse intrinsic pontine glioma line); assay: as above
# Outline: as §2
# [21] = system: iAstro; assay: as above
# Outline: as §2
# [22] = system: SUDIPGXXI; assay: as above
# Outline: as §2
# [23] = system: DIPGX29; assay: maximal growth inhibition (yFin) relative to DMSO / staurosporine; higher = more efficacious
# Outline: as §1
# [24] = system: DIPGX37; assay: as above
# Outline: as §1
# [25] = system: HGGX42; assay: as above
# Outline: as §1
# [26] = system: DIPGX7; assay: as above
# Outline: as §1
# [27] = system: DIPGX29; assay: EC50 (inflection of fitted growth-inhibition curve) (log10 M)
# Outline: as §1
# [28] = system: DIPGX37; assay: as above
# Outline: as §1
# [29] = system: HGGX42; assay: as above
# Outline: as §1
# [30] = system: DIPGX7; assay: as above
# Outline: as §1
# [31] = system: HGGX39; assay: maximal growth inhibition (yFin) relative to DMSO / staurosporine; higher = more efficacious
# Outline: as §1
# [32] = system: SUDIPGIV; assay: as above
# Outline: as §1
# [33] = system: HGGX39; assay: EC50 (inflection of fitted growth-inhibition curve) (log10 M)
# Outline: as §1
# [34] = system: SUDIPGIV; assay: as above
# Outline: as §1
# [35] = system: DIPGX9; assay: maximal growth inhibition (yFin) relative to DMSO / staurosporine; higher = more efficacious
# Outline: as §1
# [36] = system: DIPGX9; assay: EC50 (inflection of fitted growth-inhibition curve) (log10 M)
# Outline: as §1
# [37] = system: HGGX6; assay: maximal growth inhibition (yFin) relative to DMSO / staurosporine; higher = more efficacious
# Outline: as §1
# [38] = system: HGGX6; assay: EC50 (inflection of fitted growth-inhibition curve) (log10 M)
# Outline: as §1
# [39] = system: HGGX2; assay: maximal growth inhibition (yFin) relative to DMSO / staurosporine; higher = more efficacious
# Outline: as §1
# [40] = system: HGGX2; assay: EC50 (inflection of fitted growth-inhibition curve) (log10 M)
# Outline: as §1
Compound,maximal growth inhibition [1] [%],maximal growth inhibition [2] [%],maximal growth inhibition [3] [%],EC50 (log10 M) [4],EC50 (log10 M) [5],EC50 (log10 M) [6],area under dose-response curve [7],area under dose-response curve [8],area under dose-response curve [9],area under dose-response curve [10],area under dose-response curve [11],area under dose-response curve [12],area under dose-response curve [13],area under dose-response curve [14],area under dose-response curve [15],area under dose-response curve [16],area under dose-response curve [17],area under dose-response curve [18],area under dose-response curve [19],area under dose-response curve [20],area under dose-response curve [21],area under dose-response curve [22],maximal growth inhibition [23] [%],maximal growth inhibition [24] [%],maximal growth inhibition [25] [%],maximal growth inhibition [26] [%],EC50 (log10 M) [27],EC50 (log10 M) [28],EC50 (log10 M) [29],EC50 (log10 M) [30],maximal growth inhibition [31] [%],maximal growth inhibition [32] [%],EC50 (log10 M) [33],EC50 (log10 M) [34],maximal growth inhibition [35] [%],EC50 (log10 M) [36],maximal growth inhibition [37] [%],EC50 (log10 M) [38],maximal growth inhibition [39] [%],EC50 (log10 M) [40]
COc1ccc(Cn2ccc3ccc(C(=O)NO)cc32)cc1,31.4,47.6,117,-4.78,-4.67,-4.78,11.9,24.9,10.3,30.6,6.64,7.72,25.8,19.1,24.5,14.8,2.84,20.3,5.76,30.1,47,91.2,–,–,–,–,–,–,–,–,–,–,–,–,–,–,–,–,–,–
Fc1ccc(N2CCN(CCC3OCCc4ccccc43)CC2)cc1 (centres undefined),–,23.3,57.5,–,-5.03,-5.02,1.16,27.2,18.1,33.4,15.7,8.36,37.8,13.4,0,15.4,12.8,37.3,14.9,13.4,24,87.1,26.6,34.9,38.6,40.7,-5.02,-4.97,-4.98,-4.91,–,–,–,–,–,–,–,–,–,–
N=C(N)c1ccc(N=NNc2ccc(C(=N)N)cc2)cc1 [BERENIL],–,–,46.9,–,–,-5.13,0.995,41.8,84.7,90.7,43.8,13.8,0,5.74,0,0,15.1,20.8,52.7,14.9,1.3,53.1,–,–,–,–,–,–,–,–,68.7,38.7,-5.18,-5.18,–,–,–,–,–,–
Cc1nc(Nc2ncc(C(=O)Nc3c(C)cccc3Cl)s2)cc(N2CCN(CCO)CC2)n1 [DASATINIB],50.4,34.9,110,-4.77,-4.82,-4.85,143,54.9,77.5,39.6,60.9,22,83.4,80,51.9,–,12,26.2,61.1,16.1,27.6,109,–,–,–,28.2,–,–,–,-4.59,41.3,–,-5.3,–,64.4,-4.85,–,–,–,–
CC(C(O)c1ccc(O)cc1)N1CCC(Cc2ccccc2)CC1 (centres undefined) [IFENPRODIL],–,–,75.3,–,–,-4.85,0.152,39.3,44.1,48.4,29.8,17.3,66.8,18.8,3.16,8.88,18.5,57.3,25.9,27.3,13.3,85.1,29.5,59.3,61.8,45.7,-4.85,-4.82,-5.06,-4.83,36.6,45.1,-4.86,-4.66,–,–,20.6,-4.95,–,–
N[C@H]1C[C@@H]1c1ccc(-c2cccc(O)c2)cc1 [OG-L002],87.2,–,–,-6.55,–,–,7.06,67.6,78.2,78.6,174,103,100,24.4,222,81.6,3.43,138,51.3,0,35.4,7.31,–,–,–,–,–,–,–,–,–,–,–,–,–,–,–,–,–,–
O=C([C@@H](Cc1cccc(C(F)(F)F)c1)NS(=O)(=O)c1cc(F)c2c(c1)CCNC2)N1CCCC1 [PFI-2],–,–,24.8,–,–,-4.58,5.29,14,4.9,0.851,4.77,3.09,0,0,0,6.57,8.26,4.47,5.68,1.68,6.82,14.4,27.5,–,–,–,-4.51,–,–,–,–,–,–,–,–,–,–,–,–,–
CCOC(=O)c1ccc(C#Cc2ccc3c(c2)C(C)(C)CCS3)nc1 [TAZAROTENE],–,21.6,107,–,-4.78,-5.98,0,10.3,27.7,19.5,45.5,12.6,11.6,25.9,0,12.3,0,5.61,15.5,14.7,17,230,–,–,–,–,–,–,–,–,–,–,–,–,–,–,–,–,–,–
CC1=C(/C=C/C(C)=C/C=C/C(C)=C/C(=O)O)C(C)(C)CCC1 [TRETINON],–,–,94.3,–,–,-7.13,0,40.4,42.5,46.7,44.1,19.9,28.5,97.5,14.9,71.1,22,16.1,27.5,0,14.6,296,–,–,–,–,–,–,–,–,–,–,–,–,–,–,–,–,24.3,-6.92
O=C(CCCCCCC(=O)Nc1ccc([C@H]2O[C@@H](CSc3nc(-c4ccccc4)c(-c4ccccc4)o3)C[C@@H](c3ccc(CO)cc3)O2)cc1)NO [TUBACIN],–,29.5,51.8,–,-4.6,-4.84,4.17,8.41,4.96,3.94,0.838,1.78,0,5.5,8.78,3.24,1.17,22.1,0,0,17,43.2,–,–,–,–,–,–,–,–,–,–,–,–,–,–,–,–,–,–
CN1CCc2c(c3ccccc3n2Cc2ccc(C(=O)NO)cc2)C1 [TUBASTATIN A],–,54,99.5,–,-4.7,-4.83,14.5,16.3,24.6,24.4,24.1,17.2,9.08,32.9,24.1,21.2,0,5.69,6.92,6.63,37.8,82.4,–,–,–,–,–,–,–,–,–,30.1,–,-4.8,29.3,-4.76,–,–,–,–
C[C@]1(c2nc3c(C(N)=O)cccc3[nH]2)CCCN1 [VELIPARIB],–,–,99.9,–,–,-4.72,3.94,0,0,0,6.66,9.93,0,6.96,7.71,1.41,0,1.28,0,0,7.64,100,–,–,–,–,–,–,–,–,–,–,–,–,–,–,–,–,–,–
CS(=O)(=O)c1ccc(C(=O)Nc2ccc(Cl)c(-c3ccccn3)c2)c(Cl)c1 [VISMODEGIB],–,–,34.8,–,–,-4.83,0,6.39,11.1,7.51,6.55,7.7,0.511,2.06,0,1.06,0,5.14,11.3,2.44,25.8,28.8,–,–,–,–,–,–,–,–,–,–,–,–,–,–,–,–,–,–
